Data on 8 compounds can be found in ChEMBL document CHEMBL5038581, “Design, synthesis, and biological evaluation of novel dual inhibitors targeting lysine specific demethylase 1 (LSD1) and histone deacetylases (HDAC) for treatment of gastric cancer” (Eur J Med Chem, 2021).

One series has as its target CYP3A4 (Homo sapiens, UniProt P08684). The series can be described thus: in vitro. To be noted: probe testosterone.
A further series deals with CYP2C9 (Homo sapiens, UniProt P11712). The series is described as follows: in vitro. To be noted: probe diclofenac.
The target in series [1] is Lysine-specific histone demethylase 1A (Homo sapiens, UniProt O60341). The series can be described thus: Inhibition of recombinant LSD1 (157 to 852 residues) (unknown origin) expressed in Escherichia coli BL21 (DE) using H3K4me2 as substrate by amplex red assay.
The next series concerns the target Histone deacetylase 1 (Homo sapiens, UniProt Q13547). The series can be described thus: Inhibition of HDAC1 (unknown origin) using Ac-peptide as substrate preincubated for 15 mins followed by substrate addition by fluorescence assay.
In the next series the target is Histone deacetylase 5 (Homo sapiens, UniProt Q9UQL6). The series is described as follows: Inhibition of HDAC5 (unknown origin) using Ac-peptide as substrate preincubated for 15 mins followed by substrate addition by fluorescence assay.
Series [2] deals with T1, Protein deacetylase HDAC6 (Homo sapiens, UniProt Q9UBN7).
T1 sequence (Q9UBN7 whole entry): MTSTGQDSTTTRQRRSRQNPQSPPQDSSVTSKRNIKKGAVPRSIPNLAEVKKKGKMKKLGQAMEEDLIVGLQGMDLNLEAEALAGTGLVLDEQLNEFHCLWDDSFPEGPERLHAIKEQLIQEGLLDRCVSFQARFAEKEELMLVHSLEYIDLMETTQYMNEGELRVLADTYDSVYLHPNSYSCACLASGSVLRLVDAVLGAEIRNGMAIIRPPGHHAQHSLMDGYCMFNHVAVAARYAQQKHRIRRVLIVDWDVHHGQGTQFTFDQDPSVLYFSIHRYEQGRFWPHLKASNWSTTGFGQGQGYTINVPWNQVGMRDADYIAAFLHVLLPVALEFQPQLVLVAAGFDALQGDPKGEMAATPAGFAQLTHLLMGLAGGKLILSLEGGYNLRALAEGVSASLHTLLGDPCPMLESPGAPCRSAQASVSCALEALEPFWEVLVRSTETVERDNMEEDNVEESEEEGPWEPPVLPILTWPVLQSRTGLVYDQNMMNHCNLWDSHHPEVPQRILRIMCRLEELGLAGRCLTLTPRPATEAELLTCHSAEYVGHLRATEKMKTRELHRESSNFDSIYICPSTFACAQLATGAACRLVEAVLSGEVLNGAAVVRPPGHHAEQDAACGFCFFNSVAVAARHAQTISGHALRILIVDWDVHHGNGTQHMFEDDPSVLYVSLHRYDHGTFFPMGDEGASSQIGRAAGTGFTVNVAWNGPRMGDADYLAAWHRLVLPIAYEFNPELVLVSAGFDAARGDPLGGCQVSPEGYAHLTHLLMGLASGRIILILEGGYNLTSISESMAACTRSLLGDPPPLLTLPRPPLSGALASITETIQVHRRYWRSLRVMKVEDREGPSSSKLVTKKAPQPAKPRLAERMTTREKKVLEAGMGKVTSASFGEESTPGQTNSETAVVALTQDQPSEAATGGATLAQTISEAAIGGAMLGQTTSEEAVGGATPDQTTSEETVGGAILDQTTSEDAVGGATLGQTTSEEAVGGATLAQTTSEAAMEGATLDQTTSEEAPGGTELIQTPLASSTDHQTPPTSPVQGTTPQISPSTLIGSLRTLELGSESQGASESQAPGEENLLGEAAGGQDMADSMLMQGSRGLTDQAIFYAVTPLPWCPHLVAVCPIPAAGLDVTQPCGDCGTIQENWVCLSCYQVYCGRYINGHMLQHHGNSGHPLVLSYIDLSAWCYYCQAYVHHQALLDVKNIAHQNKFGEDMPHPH
The series can be described thus: Inhibition of HDAC6 (unknown origin) using Ac-peptide as substrate preincubated for 15 mins followed by substrate addition by fluorescence assay.

The next series deals with Histone deacetylase 2 (Homo sapiens, UniProt Q92769).
In a further series the test system is HCT-116. The series is described as follows: cells. Conditions: Homo sapiens, HCT-116, 72 h.
Series [3] relates to MGC-803. The series is described as follows: cells. Conditions: Homo sapiens, MGC-803, 72 h.
A further series deals with T2, CYP1A2 (Homo sapiens, UniProt P05177).
T2 sequence (P05177 whole entry): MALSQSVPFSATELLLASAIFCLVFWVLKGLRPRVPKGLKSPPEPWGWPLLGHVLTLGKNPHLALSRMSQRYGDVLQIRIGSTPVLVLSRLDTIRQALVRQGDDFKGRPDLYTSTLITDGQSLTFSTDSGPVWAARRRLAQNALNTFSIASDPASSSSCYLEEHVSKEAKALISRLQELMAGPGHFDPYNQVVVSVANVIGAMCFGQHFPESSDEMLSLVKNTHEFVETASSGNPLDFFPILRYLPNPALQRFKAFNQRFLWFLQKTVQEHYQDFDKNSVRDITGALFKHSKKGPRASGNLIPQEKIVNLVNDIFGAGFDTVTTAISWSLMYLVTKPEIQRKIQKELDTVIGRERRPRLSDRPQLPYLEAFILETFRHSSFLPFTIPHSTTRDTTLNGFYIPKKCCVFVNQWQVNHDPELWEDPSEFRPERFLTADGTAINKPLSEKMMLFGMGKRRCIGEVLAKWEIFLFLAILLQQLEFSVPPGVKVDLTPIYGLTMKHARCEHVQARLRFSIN
The series is described as follows: in vitro. To be noted: probe phenacetin.

For series [4], the system named is MGC-803. The series is described as follows: Induction of apoptosis in human MGC-803 cells assessed as apoptotic cells at 5 uM incubated for 48 hrs by annexin V-FITC and PI staining based flowcytometry analysis (Rvb =4.3 %). The class given is functional.
The test system of series [5] is MGC-803. The series can be described thus: Antiproliferative activity against human MGC-803 cells assessed as reduction in cell viability at 10 uM after 72 hrs by CellTiter-Glo assay. The class given is functional.
The target in another series is CYP2D6 (Homo sapiens, UniProt P10635). The series is described as follows: in vitro. Conditions: probe dextromethorphan.

Structures are written as SMILES. pIC50: −log10 of the molar value. A value given as a limit tells only on which side of the number the result lay.

Sequence of Histone deacetylase 5 (Q9UQL6 whole entry): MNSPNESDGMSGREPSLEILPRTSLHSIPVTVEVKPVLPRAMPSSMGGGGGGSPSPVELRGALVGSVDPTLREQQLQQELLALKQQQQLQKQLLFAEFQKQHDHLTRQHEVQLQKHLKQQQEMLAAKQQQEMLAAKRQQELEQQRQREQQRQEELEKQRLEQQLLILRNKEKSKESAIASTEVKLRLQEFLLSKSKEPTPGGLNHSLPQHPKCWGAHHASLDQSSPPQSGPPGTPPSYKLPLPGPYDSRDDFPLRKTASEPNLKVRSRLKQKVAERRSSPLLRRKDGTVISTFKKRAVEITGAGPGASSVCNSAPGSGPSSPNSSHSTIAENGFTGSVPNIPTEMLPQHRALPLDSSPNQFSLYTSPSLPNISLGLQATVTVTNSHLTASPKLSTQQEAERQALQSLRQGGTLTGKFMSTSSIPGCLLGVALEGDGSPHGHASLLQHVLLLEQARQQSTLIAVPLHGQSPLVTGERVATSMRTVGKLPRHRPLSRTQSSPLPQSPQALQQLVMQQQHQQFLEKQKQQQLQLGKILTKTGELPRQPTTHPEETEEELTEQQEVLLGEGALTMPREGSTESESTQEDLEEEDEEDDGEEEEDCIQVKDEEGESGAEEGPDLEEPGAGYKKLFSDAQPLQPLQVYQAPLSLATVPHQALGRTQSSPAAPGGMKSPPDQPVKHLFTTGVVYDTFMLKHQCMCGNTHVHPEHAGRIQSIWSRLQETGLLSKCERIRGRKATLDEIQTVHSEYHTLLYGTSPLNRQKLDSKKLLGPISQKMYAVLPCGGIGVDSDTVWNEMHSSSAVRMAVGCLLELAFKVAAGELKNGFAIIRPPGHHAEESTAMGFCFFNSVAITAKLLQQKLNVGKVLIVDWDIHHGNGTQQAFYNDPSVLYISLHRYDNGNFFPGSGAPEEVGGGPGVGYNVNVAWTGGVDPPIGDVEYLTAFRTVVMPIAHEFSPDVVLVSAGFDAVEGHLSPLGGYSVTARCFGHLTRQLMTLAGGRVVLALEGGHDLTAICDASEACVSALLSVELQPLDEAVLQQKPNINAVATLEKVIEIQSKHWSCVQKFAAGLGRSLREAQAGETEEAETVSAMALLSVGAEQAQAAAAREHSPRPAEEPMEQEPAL
Sequence of Histone deacetylase 2 (Q92769 whole entry): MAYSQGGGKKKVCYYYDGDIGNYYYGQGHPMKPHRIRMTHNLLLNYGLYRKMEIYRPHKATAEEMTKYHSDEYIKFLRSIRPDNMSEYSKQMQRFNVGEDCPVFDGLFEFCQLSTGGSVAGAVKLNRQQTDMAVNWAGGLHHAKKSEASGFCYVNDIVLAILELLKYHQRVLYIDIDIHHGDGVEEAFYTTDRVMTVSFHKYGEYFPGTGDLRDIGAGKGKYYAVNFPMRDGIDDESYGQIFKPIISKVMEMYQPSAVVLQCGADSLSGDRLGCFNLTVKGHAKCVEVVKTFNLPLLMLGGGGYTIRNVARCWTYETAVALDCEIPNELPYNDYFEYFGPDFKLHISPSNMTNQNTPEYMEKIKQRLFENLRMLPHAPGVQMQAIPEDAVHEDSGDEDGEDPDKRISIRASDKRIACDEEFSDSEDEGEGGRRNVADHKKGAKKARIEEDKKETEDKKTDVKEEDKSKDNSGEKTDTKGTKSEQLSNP
Sequence of Histone deacetylase 1 (Q13547 whole entry): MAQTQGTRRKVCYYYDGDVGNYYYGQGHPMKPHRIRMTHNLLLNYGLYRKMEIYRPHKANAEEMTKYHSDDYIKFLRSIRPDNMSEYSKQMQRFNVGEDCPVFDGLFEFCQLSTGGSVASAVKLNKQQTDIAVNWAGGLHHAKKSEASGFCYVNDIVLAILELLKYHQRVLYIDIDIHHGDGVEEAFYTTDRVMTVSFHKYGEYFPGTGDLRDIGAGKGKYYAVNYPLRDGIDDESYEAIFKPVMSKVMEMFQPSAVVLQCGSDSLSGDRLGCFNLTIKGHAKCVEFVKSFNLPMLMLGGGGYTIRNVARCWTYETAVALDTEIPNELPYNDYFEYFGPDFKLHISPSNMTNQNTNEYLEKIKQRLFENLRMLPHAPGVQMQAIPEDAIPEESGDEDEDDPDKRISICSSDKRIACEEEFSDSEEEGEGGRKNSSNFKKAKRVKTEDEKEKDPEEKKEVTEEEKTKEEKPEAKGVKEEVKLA
Sequence of CYP2D6 (P10635 whole entry): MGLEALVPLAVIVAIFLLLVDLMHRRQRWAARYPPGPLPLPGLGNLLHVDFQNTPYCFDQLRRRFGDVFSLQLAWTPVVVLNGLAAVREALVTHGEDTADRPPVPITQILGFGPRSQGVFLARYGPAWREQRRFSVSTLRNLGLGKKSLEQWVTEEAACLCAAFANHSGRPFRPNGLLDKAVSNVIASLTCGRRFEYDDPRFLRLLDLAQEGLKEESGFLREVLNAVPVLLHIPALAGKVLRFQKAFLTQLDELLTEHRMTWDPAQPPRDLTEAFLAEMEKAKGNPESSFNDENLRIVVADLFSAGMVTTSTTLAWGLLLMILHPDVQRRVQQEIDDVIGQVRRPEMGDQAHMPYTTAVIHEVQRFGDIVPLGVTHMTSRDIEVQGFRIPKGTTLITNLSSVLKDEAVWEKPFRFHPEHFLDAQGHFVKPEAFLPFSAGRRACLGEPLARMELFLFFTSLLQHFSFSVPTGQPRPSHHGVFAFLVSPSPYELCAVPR
Sequence of CYP2C9 (P11712 whole entry, the tested form may be a part): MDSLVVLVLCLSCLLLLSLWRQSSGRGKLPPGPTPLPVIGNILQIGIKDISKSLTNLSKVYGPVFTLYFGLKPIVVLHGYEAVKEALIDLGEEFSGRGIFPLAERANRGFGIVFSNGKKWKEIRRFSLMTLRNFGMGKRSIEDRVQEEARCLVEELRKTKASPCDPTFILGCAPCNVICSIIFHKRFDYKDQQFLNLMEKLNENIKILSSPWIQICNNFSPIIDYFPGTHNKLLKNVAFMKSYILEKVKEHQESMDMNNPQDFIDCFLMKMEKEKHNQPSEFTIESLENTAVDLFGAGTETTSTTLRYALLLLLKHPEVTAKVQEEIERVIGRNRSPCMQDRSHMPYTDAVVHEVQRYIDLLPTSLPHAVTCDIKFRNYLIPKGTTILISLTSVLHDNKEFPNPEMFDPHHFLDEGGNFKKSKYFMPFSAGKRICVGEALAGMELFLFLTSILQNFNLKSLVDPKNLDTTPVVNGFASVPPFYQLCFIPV
Sequence of CYP3A4 (P08684 whole entry): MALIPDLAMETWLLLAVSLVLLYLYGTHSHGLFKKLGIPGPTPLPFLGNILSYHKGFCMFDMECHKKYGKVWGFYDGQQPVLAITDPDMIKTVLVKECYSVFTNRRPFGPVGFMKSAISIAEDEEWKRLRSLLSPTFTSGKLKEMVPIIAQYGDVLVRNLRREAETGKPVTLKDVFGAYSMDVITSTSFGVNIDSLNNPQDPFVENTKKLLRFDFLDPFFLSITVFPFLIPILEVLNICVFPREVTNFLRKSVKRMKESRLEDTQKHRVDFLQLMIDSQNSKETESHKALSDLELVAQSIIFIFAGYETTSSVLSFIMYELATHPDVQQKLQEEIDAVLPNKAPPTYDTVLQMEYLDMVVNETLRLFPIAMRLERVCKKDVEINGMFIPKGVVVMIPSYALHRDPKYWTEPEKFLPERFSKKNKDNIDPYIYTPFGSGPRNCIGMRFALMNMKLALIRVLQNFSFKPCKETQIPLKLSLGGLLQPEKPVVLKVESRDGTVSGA

With `CC(=O)N1CCN(c2ccc(OCC3COC(Cn4ccnc4)(c4ccc(Cl)cc4Cl)O3)cc2)CC1` (stereo unspecified) [KETOCONAZOLE], at CYP3A4, the inhibition (in general, the relative decrease from the control value, in per cent) at 0.1 µM is 65.9%.
At CYP2C9, `Nc1ccc(S(=O)(=O)Nc2ccnn2-c2ccccc2)cc1` [SULFAPHENAZOLE] had an inhibition at 1 µM of 79.9%.
On to `O=C(NO)c1cccc(/C=C/c2ccnc(-c3ccccc3O)c2)c1`, for which the negative-log IC50 (pIC50) – broadly, the negative decadic logarithm of the IC50, by convention in mol/L – in series [1] was 5.65; on Histone deacetylase 1, 5.83; against Histone deacetylase 5, < 5.00; in series [2], 6.41; against Histone deacetylase 2, 5.73; in the series with HCT-116 it was 5.47. The negative logarithm of the IC50 (pIC50) with MGC-803 [3] is 5.55.
On CYP1A2, `O=c1cc(-c2ccccc2)oc2c1ccc1ccccc12` [ALPHA-NAPHTHOFLAVONE] had an inhibition at 0.2 µM of 90.9%.
With `O=C(CCCCCCC(=O)Nc1ccccc1)NO` [VORINOSTAT], the Activity in the series with MGC-803 [4] was 73.8%. Further, the pIC50 in the series on HCT-116 is 5.73; in the series on MGC-803 [3], 5.81.
`N/C(=N\O)c1cccc(/C=C/c2ccnc(-c3cc(F)ccc3O)c2)c1`: in the series on MGC-803 [5], the inhibition at 10 µM was determined as 35.3%.
At CYP2D6, `C=C[C@H]1C[N@@]2CC[C@H]1C[C@@H]2[C@@H](O)c1ccnc2ccc(OC)cc12` [QUINIDINE] returned an inhibition at 1 µM of 91.3%.
Take `O=C(NO)c1cccc(/C=C/c2ccnc(-c3cc(F)ccc3O)c2)c1`: the negative logarithm of the IC50 (pIC50) on Histone deacetylase 1 is 5.82; against Histone deacetylase 5, < 5.00; in [2], 6.40; against Histone deacetylase 2 it was 5.69; with HCT-116, 5.41; in the series on MGC-803 [3], 5.57.
